{
  "source": "patent US10149817B2",
  "about": "“Topical skin treatment composition comprising dendranthema indicum extract” (AMOREPACIFIC CORPORATION, priority 2011, dated 2018)",
  "key": {"[1]": {"test_system": "C57BL/6 mouse melanocytes (Mel-Ab cells)", "assay": "Melanin production inhibitory effect using mouse melanocytes", "assay_type": "cell-based", "details": "25 ppm test material, three consecutive days, absorbance at 400 nm", "description": "The melanin production inhibitory activities of the Chrysanthemum indicum var. albescens extract prepared in Preparation Example 1 and the Chrysanthemum indicum extract prepared in Comparative Preparation Example 1 were measured comparatively with those of the known whitening substance hydroquinone.\nC57BL/6 mouse melanocytes (Mel-Ab cells) (Dooley, T. P. et al, Skin pharmacol, 7, pp 188-200) were cultured in DMEM, containing 10% fetal bovine serum, 100 nM 12-O-tetradecanoylphorbol-13-acetate and 1 nM cholera toxin, under the conditions of 37° C. and 5% CO2. The cultured Mel-Ab cells were detached with 0.25% trypsin-EDTA and cultured in a 24-well plate at a concentration of […]. Then, during three consecutive days from 2 days of culture, each of the test materials was added thereto and cultured. As the test materials, 25 ppm of each of the Chrysanthemum indicum var. albescens extract of Preparation Example 1, the Chrysanthemum indicum extract of Comparative Preparation Example 1, and hydroquinone were used. Herein, the hydroquinone was used as a positive control. […] The lysed cells were measured for absorbance at 400 nm, and based on the measured absorbance, the percent inhibition of melanin production was calculated according to the following equation 2. Percent inhibition of melanin production=100−(absorbance of test material/absorbance of control×100) Equation 2"}, "[2]": {"test_system": "skin of panels sensitive to irritation", "assay": "Irritation test (stinging, burning) in panels sensitive to irritation", "assay_type": "in vivo", "details": "0.5 mL applied to skin, 15 panels", "description": "In order to compare the sensory feeling of the Chrysanthemum indicum var. albescens extract of the present invention with that of the known whitening substance kojic acid, 15 panels sensitive to irritation, such as stinging, burning, etc., were subjected to a test for determining irritation, such as stinging, burning, etc.\nEach test panel was allowed to apply 0.5 mL of each of kojic acid (available from YM Chemical Co.) and the Chrysanthemum indicum var. albescens extract to his/her skin randomly at the left side or right side, and then evaluate the test sample by grading from 0 to 3.0 at an interval of 0.1.\n0.5-1.0: slight irritation;\n1.1-2.0: mild irritation;\n2.1-3.0: severe irritation."}, "collagenase": {"test_system": "collagenase", "assay": "Inhibition of collagenase expression in human fibroblasts", "assay_type": "cell-based", "details": "10^−4 M test material, 24 hours, untreated group = 100", "description": "The collagenase expression inhibitory activities of the Chrysanthemum indicum var. albescens extract prepared in Preparation Example 1 and the Chrysanthemum indicum extract prepared in Comparative Preparation Example 1 were measured comparatively with those of tocopherol and EGCG. Tocopherol and EGCG are antioxidant substances known to function to regenerate the epidermal cells of the skin to prevent the aging of the skin.\nIn the test, human fibroblasts were added to a 96-well microtiter plate containing 2.5% FBS-containing DMEM (Dulbecco's Modified Eagle's Media) medium at a density of 5,000 cells/well and were cultured to a confluence of about 90%. […]\nThe production of collagenase in the harvested cell cultures was measured using a commercially available collagenase measuring device (Amersham Pharmacia, USA). […]\nThe absorbance of the 96-well plate having a yellow color was measured at 405 nm using a spectrophotometer, and the degree of synthesis of collagenase was calculated using the following Equation 1. Herein, the absorbance of the cell culture broth harvested from the group not treated with the test material was used as a control. That is, the expression level of collagenase in the untreated group was set as 100, and the expression level of collagenase in the group treated with the test material was calculated relative to the untreated group. […]"}, "[3]": {"details": "grade 0 to 3.0 at interval of 0.1"}},
  "data": [
    {"molecule": "Oc1ccc(O)cc1", "note": "[Hydroquinone, hydroquinone]", "values": [
      {"measurement": "inhibition at 25 ppm", "setting": "[1]", "value": 48.2, "unit": "%"}
    ]},
    {"molecule": "O=c1cc(CO)occ1O", "note": "[Kojic acid, kojic acid]", "values": [
      {"measurement": "Irritation with respect to stinging and burning (in words)", "setting": "[2]", "value": "slight stinging and burning"},
      {"measurement": "Average (irritation grade of stinging and burning)", "setting": "[2]; grade 0 to 3.0", "value": 0.67},
      {"measurement": "Burning (irritation grade 0 to 3.0)", "setting": "[2]; [3]", "value": 0.43},
      {"measurement": "Stinging (irritation grade 0 to 3.0)", "setting": "[2]; [3]", "value": 0.91}
    ]},
    {"molecule": "tocopherol", "values": [
      {"measurement": "Collagenase expression level (%)", "setting": "collagenase", "value": 76, "unit": "%"}
    ]},
    {"molecule": "O=C(O[C@@H]1Cc2c(O)cc(O)cc2O[C@@H]1c1cc(O)c(O)c(O)c1)c1cc(O)c(O)c(O)c1", "note": "[EGCG]", "values": [
      {"measurement": "Collagenase expression level (%)", "setting": "collagenase", "value": 69, "unit": "%"}
    ]}
  ]
}
